{
  "source": "patent US9012481B2",
  "about": "“Benzoarylureido compounds, and composition for prevention or treatment of neurodegenerative brain disease containing the same” (Korea Institute of Science and Technology, priority 2009, dated 2015)",
  "test_system": "BV-2 cells",
  "assay": "Cell viability (MTT analysis) of beta-amyloid treated BV-2 cells",
  "format": "cell-based",
  "settings": "for viability at 0.05 µM: Mus musculus",
  "method": "Beta-amyloid (Aβ25-35, Sigma Chemical Co., St. Louis, Mo., USA) was diluted with aseptic desalted water and preservative solution (1 mM, GIBCO), and kept in aliquots at −70° C. To the treatment of beta-amyloid, beta-amyloid preservative solution was diluted to desired concentrations in a treatment medium (DMEM, GIBCO). The reagents were newly provided as a preservative solution (10 mM) under DMSO (dimethylsulfoxide), and diluted in treatment medium to desired concentrations.\nBV-2 microglia cells (allotted from Pharmacology Division of Ajou University) were cultivated in DMEM (Dulbecco's Modified Eagle's Medium) supplemented with 5% fetal bovine serum (Invitrogen, Carlsbad, Calif., USA), sou/Ml penicillin (Invitrogen, Carlsbad, Calif., USA), and 50 μg/Ml streptomycin (Invitrogen, Carlsbad, Calif., USA) under the atmosphere condition with 5% CO2 and 95% air at 37° C. The medium was replaced once a day, the cells were plate-cultured in a density according to the scale of each experiment.\nBV-2 cells were plate-cultured in 96-well plate at the density of 5×10^4, the cell viability was measured according to a conventional MTT analysis method and lactate dehydrogenase (LDH) analysis method. The MTT analysis depends on the metabolism ability of mitochondria of living cell, and reflexes intracellular redox states. The cultured cells were treated with MTT a solution (final concentration: 1 mg/Ml) for 4 hours. Deep blue formazan crystal generated in the original cells was dissolved in a lysis buffer, and then, the absorbance was detected at 595 nm with microplate reader. The LDH activity released from the culture medium was detected, which was evaluated as a cell death index. The culture medium was added to a reagent (test, Sigma Chemical Co, St. Louis, Mo., USA) containing sodium lactate, NADH and sodium pyruvate, and then, the absorbance reduction by NADH at 340 nm was measured. The result was calculated assuming that the LDH activity in homogenate solution of the non-treated control is 100%.\n[…] For microscope analysis, BV-2 cells were used in 6-well plate at the density of 5×10^5 cells/well, for MTT analysis, BV-2 cells were used in 96-well plate at the density of 5×10^4 cells/well.\nThe obtained prevention effects of KHG25967 compound on toxicity induced by beta-amyloid in BV-2 cells were FIGS. 1A and 1b.\nFor MTT analysis, BV-2 cells were used on 96-well plate in the density of 5×10^4 cells/well. The quantitative analysis results (unit: %) for the cell viability obtained by MTT analysis were shown in Table 2, wherein the values are represented by the average of three experiments per each concentration.",
  "note": "Read-outs that look alike come from different tables or passages of the source.",
  "data": [
    {"compound": "O=C(O)CNC(=O)Nc1nc2ccccc2s1", "note": "[KHG25967, 2-(3-benzo[d]thiazole-2-ylureido)acetic acid]", "values": [
      {"measurement": "protection against nervous cell degeneration by beta-amyloid, compound pre-treated", "setting": "KHG25967 pre-treated prior to the addition of beta-amyloid, similar to treatment after beta-amyloid", "value": "shows a protective effect against nervous degeneration"},
      {"measurement": "viability at 0.05 µM", "setting": "BV-2, 50 nM KHG25967 for 24 hours after 50 μM beta-amyloid for 2 hours, beta-amyloid only control 35%, read-out: cell viability (FIG. 1B, MTT analysis)", "value": 83, "unit": "%"},
      {"measurement": "viability at 0.05 µM", "setting": "compound 50 nM for 24 hours after 50 μM beta-amyloid for 2 hours, BV-2 cells, average of three experiments, read-out: cell viability by MTT analysis", "value": 83, "unit": "%"}
    ]}
  ]
}
